Assay results reported in US12115178B2, “Acylated active agents and methods of their use for the treatment of autoimmune disorders” (Flagship Pioneering Innovations V, Inc., priority 2018, dated 2024).

Key:
naïve CD4+ T cells = assay: Human regulatory T cell differentiation assay; assay type: cell-based; conditions: 6 days
Method: Peripheral blood mononuclear cells (PBMCs) from whole blood donated by health volunteers were separated by Ficoll-Paque gradient centrifugation and naïve CD4^+ T cells were subsequently isolated using magnet beads (EasySep™ Human Naïve CD4^+ T Cell Isolation Kit, Cambridge, MA). For regulatory T cell (Treg) differentiation assay, naïve CD4^+ T cells were cultured (1-10×10^4 cells) in CTS OpTmizer medium for 6 days and stimulated with 5 ng/ml TGF-β, 100 U/ml IL-2, and ImmunoCult™ Human […] T Cell Activator; Stemcell #10990) with/without our Compounds. Cell viability was determined using a viability dye (eBioscience Fixable Viability Dye eFluor 780: ThermoFisher 65-0865-14) at 1:500 dilution. The cells were gated for Treg, defined as Live, CD11c^−, CD14^−, CD19^−, CD8^−, CD4^+, CD3^+, CD25^+, FOXP3^+. Percent (%) Tregs were calculated as percentage of CD4^+, CD25^+, FOXP3^+ cells over total CD4 T cells. Statistical analysis was performed with GraphPad Prism Software Using One-Way ANOVA.

neutrophil = assay: Neutrophil chemokine production assay; assay type: cell-based, human; conditions: 12 h
Method: A volume 25 mL of human blood was layered over 15 mL of Histopaque®-1077 and centrifuged at 500 g, RT, for 30 min with no break applied to the centrifuge. The PBMC band and Histopaque®-1077 layer were removed leaving behind the bottom red layer which was mixed with 40 mL of 1× red blood cell (RBC) lysis buffer (Sigma-Aldrich) was and split into two 50 mL tubes. The volume for both fractions was brought to 50 mL with RBC lysis buffer, mixed by inversion, and then incubated at RT for 10 min. Solutions were centrifuged at 250 g, for 10 min at RT and the supernatant liquids removed. The reddish pellets were re-suspended in 1 mL of RBC lysis buffer and combined. The cell suspension was incubated for 5 min at RT in RBC lysis buffer. After incubation 45 mL of Hanks Balanced Salt Solution with no calcium, magnesium or phenol red (HBSS−) was added, the cell suspension was spun (250 g for 10 min at RT), and supernatant liquids were removed. The white pellet was re-suspended in 1 mL of HBSS−, and cell counts were determined. The neutrophil cell suspension was brought to a concentration of 1.11e6 cells/mL in RPMI complete (Sigma-Aldrich), and 180 μL of cell suspension was transferred to all wells within a sterile 96-well tissue culture treated plate resulting in 2.0e5 cells/well. […] After incubation, 10 μL of 2 μg/mL LPS solution in RPMI complete was added to each well except for control wells, which received an additional 10 μL of media. Cells were incubated for 12 h (37° C., 5% CO2), after which plates were centrifuged at 250 g, RT, for 5 min and supernatant liquids were obtained and stored at −80° C. until analyzed via Luminex® Multiplex Assay for various chemokines and cytokines. Three data points were acquired from two different blood donors and averaged.

[1] = test system: Primary Human Peripheral Blood Mononuclear Cells (PBMCs); assay: Inflammatory signals in LPS-treated primary human PBMCs; assay type: cell-based; conditions: 100 uM, 24 hours
Method: Human donor blood (8 mL) was collected in sodium citrate CPT tubes and centrifuged at 1,600×g for 20 minutes at room temperature. Buffy coat containing PBMCs was collected and transferred to a 50 mL conical tube containing 30 mL of RPMI-1640 medium at room temperature (supplemented with penicillin-streptomycin). PBMCs samples were centrifuged at 400×g for 10 minutes at 10° C. The pelleted PBMCs were washed twice in 10 ml of RPMI-1640 medium (supplemented with penicillin-streptomycin), then resuspended in RPMI-1640 medium (supplemented with penicillin-streptomycin, fetal bovine serum, and L-Glutamine). PBMCs were filtered through a 70 micron mesh to remove any cellular debris. […] PBMCs in a 96-well plate were rested for 30 minutes in a 37° C., 5% CO2 incubator, then subsequently treated with 10 μl of indicated compound. After 2 hours 10 μL of LPS (O111:B4) 1 mg/mL was added to test wells. After 24 hours of incubation at 37° C., 5% CO2, 100 μL of cell supernatant was collected and transferred to a 96-well plate (non-tissue treated, flat bottom). The plate was centrifuged at 350×g for 5 minutes at room temperature, and then the clear supernatant transferred to a new 96-well plate (non-tissue treated, flat bottom). The remaining cells were tested for viability using CellTiter-Glo® Luminescent Cell Viability Assay (Promega). The supernatant was analyzed for TNFα, IL-6 and […] Systems), using Luminex Immunoassay Technology (MAGPIX System). Cytokine levels of LPS treated DMSO control samples were set to 100%, and compound treated samples were expressed relative to this (Table 3).

[2] = Assay 2. Stability in Simulated Intestinal Fluid (SIF); assay type: in vitro ADME; conditions: SIF pH 6.7 with pancreatin, 1 μM, 37° C.
Outline: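 Degradation rates came from LC/MS of acetonitrile-quenched samples drawn at intervals, starting at T0. The medium was freshly made pH 6.7 FaSSIF containing pancreatin, and test compound was present at 1 µM while being shaken at 37 °C.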

[3] = test system: type II collagen arthritis; assay: In vivo rheumatoid arthritis model (semi-established type II collagen arthritis); parameters: species or system Lewis rats; conditions: 500 mg/kg PO BID, rats
Method: A study was conducted to determine the efficacy of test articles dosed by the oral (PO) route for inhibition of the inflammation (paw swelling), cartilage destruction, and bone resorption that occurs in semi-established type II collagen arthritis in female Lewis rats. Rats (10 per group) were injected intradermally (ID) with porcine type II collagen to induce arthritis; one group of rats (4 per group) served as vehicle-treated naïve controls. […] Positive controls were treated PO, BID with the reference compound Tofacitinib citrate (10 mg/kg). The rats were euthanized for necropsy on study day 21 (animals #1-5 in each group, animals #1-2 in naïve group) or 22 (animals #6-10 in each group, animals #3-4 in naïve group). Efficacy evaluation was based on animal body weights (Table 9), daily ankle caliper measurements (FIG. 4), ankle diameter expressed as area under the curve (AUC) (Table 10), terminal hind paw weights (Table 11), histopathologic evaluation of hind paws (Ankle Inflammation score: Table 12, Ankle Pannus score: Table 13, Ankle Cartilage Damage score: Table 14, Ankle Bone Resorption score: Table 15, Ankle Periosteal Bone score: Table 16, Ankle Periosteal Bone Width: Table 17) and knees (Knee Inflammation score: Table 18, Knee Pannus score: Table 19, Knee Cartilage Damage score: Table 20, Knee Bone Resorption score: Table 21), and relative spleen to body weight ratio (Table 22). Terminal serum was analyzed by enzyme-linked immunosorbent assay (ELISA) for anti-type II collagen antibodies (IgG) (Table 23). […] Statistics were conducted using ordinary one-way ANOVA with Dunnett's multiple comparison correction in GraphPad Prism.

[4] = Assay 3. In vitro Colonic Material Stability Assay; assay type: in vitro ADME; conditions: colonic material slurry, anaerobic, 1 or 10 μM

For `CCC(=O)O` [Propionic acid], which “Cell viability % DMSO” value (naïve CD4+ T cells; 3 mM) is on record?
Its value is “= (90%> <110%: =)”.

Which results are given for `CC(=O)O` [Acetic acid, acetic acid]?
Cell viability % DMSO (naïve CD4+ T cells; 1 mM): = (90%> <110%: =); Cell viability % DMSO (naïve CD4+ T cells; 3 mM): = (90%> <110%: =)

What does the source list for `O=c1c(O)c(-c2ccc(O)c(O)c2)oc2cc(O)cc(O)c12` [quercetin, reference compound]?
Cell viability % DMSO (naïve CD4+ T cells; 100 nM): = (90%> <110%: =); Cell viability % DMSO (naïve CD4+ T cells; 1 uM): = (90%> <110%: =); % IL-8 (Vehicle + LPS = 100%) (neutrophil; 0.1 μM): − (− = >90% Vehicle); % MIP-1α (Vehicle + LPS = 100%) (neutrophil; 0.1 μM): − (− = >90% Vehicle); % MIP-1β (DMSO + LPS = 100%) (neutrophil; 0.1 μM): − (− = >90% Vehicle); % IL-8 (Vehicle + LPS = 100%) (neutrophil; 1.0 μM): − (− = >90% Vehicle); % MIP-1α (Vehicle + LPS = 100%) (neutrophil; 1.0 μM): − (− = >90% Vehicle); % MIP-1β (DMSO + LPS = 100%) (neutrophil; 1.0 μM): − (− = >90% Vehicle); IL1β % DMSO control [1]: + ((+) 50%> <90% DMSO)

Which “Assay 2 (SIF) (% @ Remaining 4 hours)” value [2] does the source give for `CCCC(=O)Oc1cc(C(=O)O)cc(OC(=O)CCC)c1OC(=O)CCC` [Compound 45, 3,4,5-tris(butyryloxy)benzoic acid] here?
The value was “A (<25% of the tested compound remaining)”.

What about the “Mean Ankle Diameter AUC (mm*day)” value [3] of the same compound?
Its value is 94.20 mm*day.

And the “Mean Ankle Periosteal Bone width (um)” value [3]?
The value was 630.00 um.

What about the “Mean Knee Inflammation score (0-5)” value [3] of the same compound?
The value was 5.25.

And the “Mean Terminal hind paw weights” value [3]?
The value was 2.3988 g.

What about the “Mean body weight change, day −1 to 21 (%)” value [3] of the same compound?
Its value is −6.3%.

What about the “Relative Spleen to Body Weight (Mean)” value [3] of the same compound?
The value was 0.2534.

What about the “Mean Ankle Bone Resorption score (0-5)” value ([3]; 0 = normal, 5 = severe) of the same compound?
Its value is 3.48.

What about the “Mean Ankle Cartilage Damage score (0-5)” value ([3]; 0 = normal, 5 = severe) of the same compound?
Its value is 4.20.

What about the “Mean Ankle Pannus score (0-5)” value ([3]; 0 = normal, 5 = severe) of the same compound?
Its value is 3.48.

And the “Mean Ankle Periosteal Bone score (0-5)” value ([3]; 0 = normal, 5 = severe)?
Its value is 3.38.

And the “Mean Ankle inflammation score (0-5)” value ([3]; 0 = normal, 5 = severe)?
Its value is 2.3988.

What about the “Mean Knee Bone Resorption score (0-5)” value ([3]; 0 = normal, 5 = severe) of the same compound?
Its value is 2.40.

And the “Mean Knee Cartilage Damage score (0-5)” value ([3]; 0 = normal, 5 = severe)?
Its value is 3.63.

And the “Mean Knee Pannus score (0-5)” value ([3]; 0 = normal, 5 = severe)?
The value was 2.48.

And the “Serum IgG” value ([3]; terminal serum ELISA for anti-type II collagen antibodies)?
Its value is 5431.64 µg/mL.

What about the “Assay 3 (% Remaining at 24 h)” value [4] of the same compound?
The value was “A (<25% of the tested compound remaining)”.

With `CCC(=O)O` [propionate] as the compound, how does the “% IL-8 (Vehicle + LPS = 100%)” value (neutrophil; 500.0 μM) read?
Its value is “− (− = >90% Vehicle)”.

And the “% MIP-1α (Vehicle + LPS = 100%)” value (neutrophil; 500.0 μM)?
The value was “+++ (+++ = <50% Vehicle)”.

And the “% MIP-1β (DMSO + LPS = 100%)” value (neutrophil; 500.0 μM)?
The value was “+++ (+++ = <50% Vehicle)”.

And the “% IL-8 (Vehicle + LPS = 100%)” value (neutrophil; 1000.0 μM)?
Its value is “++ (++ = <70%Vehicle)”.

What about the “% MIP-1α (Vehicle + LPS = 100%)” value (neutrophil; 1000.0 μM) of the same compound?
The value was “+++ (+++ = <50% Vehicle)”.

And the “% MIP-1β (DMSO + LPS = 100%)” value (neutrophil; 1000.0 μM)?
The value was “+++ (+++ = <50% Vehicle)”.

What about the “% IL-8 (Vehicle + LPS = 100%)” value (neutrophil; 3000.0 μM) of the same compound?
The value was “+++ (+++ = <50% Vehicle)”.

And the “% MIP-1α (Vehicle + LPS = 100%)” value (neutrophil; 3000.0 μM)?
Its value is “+++ (+++ = <50% Vehicle)”.

And the “% MIP-1β (DMSO + LPS = 100%)” value (neutrophil; 3000.0 μM)?
Its value is “+++ (+++ = <50% Vehicle)”.

And the “IL1β % DMSO control” value [1]?
Its value is “+ ((+) 50%> <90% DMSO)”.

What does the source list for `C[C@@H](O)CCO` [(R)-1,3-Butanediol]?
Cell viability % DMSO (naïve CD4+ T cells; 100 uM): = (90%> <110%: =); Cell viability % DMSO (naïve CD4+ T cells; 0.5 mM): = (90%> <110%: =)
